Source: patent US20230095836A1, “SUBSTITUTED 5,6-DIPHENYL-3(2H)-PYRIDAZINONES FOR USE AS FUNGICIDES” (FMC Corporation, priority 2020, published 2023)

What was measured:
Format in all cases: in vivo
Zymoseptoria tritici = assay: Test A: test solution sprayed on wheat seedlings, inoculated next day with Zymoseptoria tritici (wheat leaf blotch); disease rating (100 = 100% disease control, 0 = no control; dash = not tested)
Experimental: The resulting test suspensions were then used in Tests A-F. The test solution was sprayed to the point of run-off on wheat seedlings. The following day the seedlings were inoculated with a spore suspension of Zymoseptoria tritici (the causal agent of wheat leaf blotch) and incubated in a saturated atmosphere at 24° C. for 48 h, and then moved to a growth chamber at 20° C. for 17 days, after which time disease ratings were made. A rating of 100 indicates 100% disease control and a rating of 0 indicates no disease control (relative to the controls). A dash (—) indicates the compound was not tested.

[1] = system: Puccinia recondita f. sp. tritici; assay: Test B: test solution sprayed on wheat seedlings, inoculated next day with Puccinia recondita f. sp. tritici (wheat leaf rust); disease rating (100 = 100% disease control, 0 = no control; dash = not tested)
From the text: The resulting test suspensions were then used in Tests A-F. The test solution was sprayed to the point of run-off on wheat seedlings. […] A rating of 100 indicates 100% disease control and a rating of 0 indicates no disease control (relative to the controls). A dash (—) indicates the compound was not tested.

[2] = system: Blumeria graminis f. sp. tritici; assay: Test C: test suspension sprayed on wheat seedlings, inoculated next day with Blumeria graminis f. sp. tritici (wheat powdery mildew); visual disease rating (100 = 100% disease control, 0 = no control; dash = not tested)
Experimental: The resulting test suspensions were then used in Tests A-F. The test suspension was sprayed to the point of run-off on wheat seedlings. The following day the seedlings were inoculated with a spore dust of Blumeria graminis f. sp. tritici, (also known as Erysiphe graminis f. sp. tritici, the causal agent of wheat powdery mildew) and incubated in a growth chamber at 20° C. for 8 days, after which time visual disease ratings were made. A rating of 100 indicates 100% disease control and a rating of 0 indicates no disease control (relative to the controls). A dash (—) indicates the compound was not tested.

Phakopsora pachyrhizi = assay: Test D: test solution sprayed on soybean seedlings, inoculated next day with Phakopsora pachyrhizi (Asian soybean rust); visual disease rating (100 = 100% disease control, 0 = no control; dash = not tested)
From the text: General protocol for preparing test suspensions for Tests A-F: the test compounds were first dissolved in acetone in an amount equal to 3% of the final volume and then suspended at the desired concentration (in ppm) in acetone and purified water (50/50 mix by volume) containing 250 ppm of the surfactant PEG400 (polyhydric alcohol esters). The resulting test suspensions were then used in Tests A-F.
The test solution was sprayed to the point of run-off on soybean seedlings. The following day the seedlings were inoculated with a spore suspension of Phakopsora pachyrhizi (the causal agent of Asian soybean rust) and incubated in a saturated atmosphere at 22° C. for 24 h and then moved to a growth chamber at 22° C. for 8 days, after which time visual disease ratings were made.
A rating of 100 indicates 100% disease control and a rating of 0 indicates no disease control (relative to the controls). A dash (—) indicates the compound was not tested.

Botrytis cinerea = assay: Test E: test suspension sprayed on tomato seedlings, inoculated next day with Botrytis cinerea (tomato Botrytis); visual disease rating (100 = 100% disease control, 0 = no control; dash = not tested)
Experimental: (§1) The resulting test suspensions were then used in Tests A-F. The test suspension was sprayed to the point of run-off on tomato seedlings. The following day the seedlings were inoculated with a spore suspension of Botrytis cinerea (the causal agent of tomato Botrytis) and incubated in a saturated atmosphere at 20° C. for 48 h, and then moved to a growth chamber at 24° C. for 3 days, after which time visual disease ratings were made. A rating of 100 indicates 100% disease control and a rating of 0 indicates no disease control (relative to the controls). A dash (—) indicates the compound was not tested.

Alternaria solani = assay: Test F: test suspension sprayed on tomato seedlings, inoculated next day with Alternaria solani (tomato early blight); visual disease rating (100 = 100% disease control, 0 = no control; dash = not tested)
Experimental: as §1, with “Alternaria solani” for “Botrytis cinerea”, “early blight)” for “Botrytis)”, “27°” for “20°”, “20°” for “24°”

Row | SMILES | Test A disease control rating (Zymoseptoria tritici; 50 ppm) [%] | Test B disease control rating ([1]; 50 ppm) [%] | Test C disease control rating ([2]; 50 ppm) [%] | Test D disease control rating (Phakopsora pachyrhizi; 50 ppm) [%] | Test E disease control rating (Botrytis cinerea; 50 ppm) [%] | Test F disease control rating (Alternaria solani; 50 ppm) [%] | other results
1 | COc1cc(F)c(Cl)c(-c2nn(C)c(=O)c(OC)c2-c2ccc(F)cc2Cl)c1 [Compound 164] | 100 | 100 | 99 | 100 | 99 | 100 | –
2 | Cn1nc(-c2ccccc2F)c(-c2ccc(F)cc2Cl)c(Cl)c1=O [Compound 72] | 100 | 99 | 99 | 75 | 98 | 99 | –
3 | COc1c(-c2ccc(F)cc2Cl)c(-c2cccc(F)c2Cl)nn(C)c1=O [Compound 154] | 100 | 100 | 100 | 87 | 100 | 100 | –
4 | CCn1nc(-c2cc(OC)cc(OC)c2Br)c(-c2c(F)cccc2F)c(C#N)c1=O [Compound 100] | 100 | 100 | 99 | 100 | 99 | 93 | –
5 | COc1cc(F)cc(-c2nn(C)c(=O)cc2-c2c(F)cccc2F)c1Cl [Compound 206] | 97 | 100 | 93 | 65 | 100 | 76 | –
6 | COc1ccc(Br)c(-c2nn(C)c(=O)c(Cl)c2-c2ccc(F)cc2Cl)c1 [Compound 118] | 99 | 100 | 99 | 100 | 98 | 100 | –
7 | CCOc1ccc(Cl)c(-c2nn(C)c(=O)c(C)c2-c2ccc(F)cc2Cl)c1 [Compound 175] | 100 | 100 | 99 | 100 | 98 | 100 | –
8 | CCn1nc(-c2ccc(F)cc2Cl)c(-c2ccc(F)cc2Cl)c(Cl)c1=O [Compound 24] | – | – | – | – | – | – | Test A disease control rating (Zymoseptoria tritici; 250 ppm): 100%; Test B disease control rating ([1]; 250 ppm): 80%; Test C disease control rating ([2]; 250 ppm): 93%; Test D disease control rating (Phakopsora pachyrhizi; 250 ppm): 0%; Test E disease control rating (Botrytis cinerea; 250 ppm): 100%; Test F disease control rating (Alternaria solani; 250 ppm): 0%
9 | COc1cc(C#N)c(Cl)c(-c2nn(C)c(=O)c(Cl)c2-c2ccc(F)cc2Cl)c1 [Compound 51] | 100 | 100 | 99 | 100 | 96 | 100 | –
10 | COc1cccc(-c2nn(C)c(=O)c(Cl)c2-c2ccc(F)cc2Cl)c1Cl [Compound 140] | 99 | 100 | 99 | 100 | 99 | 100 | –
11 | Cn1nc(-c2ccc(F)cc2Cl)c(-c2ccc(F)cc2Cl)c(Cl)c1=O [Compound 60] | 100 | 100 | 99 | 93 | 98 | 99 | –
12 | COc1ccc(Cl)c(-c2nn(C)c(=O)c(Cl)c2-c2ccc(C#N)cc2Cl)c1 [Compound 186] | 99 | 100 | 97 | 99 | 90 | 100 | –
13 | COc1cc(OC)c(Cl)c(-c2nn(C)c(=O)c(C)c2-c2ccc(F)cc2Cl)c1Cl [Compound 169] | 37 | 68 | 43 | 0 | 93 | 0 | –
14 | COc1cccc(-c2nn(C)c(=O)cc2-c2c(F)cccc2F)c1Cl [Compound 30] | – | – | – | – | – | – | Test A disease control rating (Zymoseptoria tritici; 250 ppm): 100%; Test B disease control rating ([1]; 250 ppm): 99%; Test C disease control rating ([2]; 250 ppm): 84%; Test D disease control rating (Phakopsora pachyrhizi; 250 ppm): 98%; Test E disease control rating (Botrytis cinerea; 250 ppm): 100%; Test F disease control rating (Alternaria solani; 250 ppm): 41%
15 | COc1cc(OC)c(F)c(-c2nn(C)c(=O)c(Cl)c2-c2ccc(F)cc2Cl)c1 [Compound 155] | 99 | 100 | 100 | 100 | 100 | 100 | –
16 | COc1cc(F)c(Br)c(-c2nn(C)c(=O)c(Cl)c2-c2ccc(F)cc2Cl)c1 [Compound 159] | 100 | 100 | 99 | 100 | 99 | 100 | –
17 | CCCc1c(-c2ccc(F)cc2Cl)c(-c2cc(OC)ccc2Cl)nn(C)c1=O [Compound 125] | 100 | 0 | 97 | 17 | 99 | 0 | –
18 | CCc1c(-c2ccc(F)cc2Cl)c(-c2cc(F)ccc2Cl)nn(C)c1=O [Compound 129] | 100 | 100 | 100 | 67 | 99 | 100 | –
19 | COc1ccc(Cl)c(-c2nn(C)c(=O)c(Cl)c2-c2ccc(F)cc2Br)c1 [Compound 97] | 100 | 100 | 100 | 100 | 96 | 99 | –
20 | CCOC(=O)c1c(-c2ccc(F)cc2Cl)c(-c2ccc(F)cc2Cl)nn(C)c1=O [Compound 153] | – | – | – | – | – | – | Test A disease control rating (Zymoseptoria tritici; 250 ppm): 0%; Test B disease control rating ([1]; 250 ppm): 0%; Test C disease control rating ([2]; 250 ppm): 96%; Test D disease control rating (Phakopsora pachyrhizi; 250 ppm): 71%; Test E disease control rating (Botrytis cinerea; 250 ppm): 0%; Test F disease control rating (Alternaria solani; 250 ppm): 0%
21 | Cn1nc(-c2cccc(Cl)c2F)c(-c2ccc(F)cc2Cl)c(Cl)c1=O [Compound 105] | 100 | 99 | 99 | 79 | 96 | 99 | –
22 | COc1ccc(-c2nn(C)c(=O)c(OC)c2-c2ccc(F)cc2Cl)c(F)c1 [Compound 166] | 100 | 91 | 79 | 0 | 95 | 67 | –
23 | Cn1nc(-c2ccccc2)c(-c2ccc(F)cc2Cl)c(Cl)c1=O [Compound 141, 4-chloro-5-(2-chloro-4-fluorophenyl)-2-methyl-6-phenyl-3(2H)-pyridazinone] | – | – | – | – | – | – | pest or weed control at 50 ppm (Zymoseptoria tritici; 50 ppm): 99%; pest or weed control at 50 ppm ([1]; 50 ppm): 98%; pest or weed control at 50 ppm ([2]; 50 ppm): 99%; pest or weed control at 50 ppm (Phakopsora pachyrhizi; 50 ppm): 0%; pest or weed control at 50 ppm (Botrytis cinerea; 50 ppm): 98%; pest or weed control at 50 ppm (Alternaria solani; 50 ppm): 99%
